{"source": "ChEMBL document CHEMBL3879881", "about": "“Substituted pyrazolyl compounds for the treatment of inflammation” (2005)"}
{"target": "T1, Inhibitor of nuclear factor kappa-B kinase subunit beta (Homo sapiens, UniProt O14920)", "T1 sequence (O14920 whole entry)": "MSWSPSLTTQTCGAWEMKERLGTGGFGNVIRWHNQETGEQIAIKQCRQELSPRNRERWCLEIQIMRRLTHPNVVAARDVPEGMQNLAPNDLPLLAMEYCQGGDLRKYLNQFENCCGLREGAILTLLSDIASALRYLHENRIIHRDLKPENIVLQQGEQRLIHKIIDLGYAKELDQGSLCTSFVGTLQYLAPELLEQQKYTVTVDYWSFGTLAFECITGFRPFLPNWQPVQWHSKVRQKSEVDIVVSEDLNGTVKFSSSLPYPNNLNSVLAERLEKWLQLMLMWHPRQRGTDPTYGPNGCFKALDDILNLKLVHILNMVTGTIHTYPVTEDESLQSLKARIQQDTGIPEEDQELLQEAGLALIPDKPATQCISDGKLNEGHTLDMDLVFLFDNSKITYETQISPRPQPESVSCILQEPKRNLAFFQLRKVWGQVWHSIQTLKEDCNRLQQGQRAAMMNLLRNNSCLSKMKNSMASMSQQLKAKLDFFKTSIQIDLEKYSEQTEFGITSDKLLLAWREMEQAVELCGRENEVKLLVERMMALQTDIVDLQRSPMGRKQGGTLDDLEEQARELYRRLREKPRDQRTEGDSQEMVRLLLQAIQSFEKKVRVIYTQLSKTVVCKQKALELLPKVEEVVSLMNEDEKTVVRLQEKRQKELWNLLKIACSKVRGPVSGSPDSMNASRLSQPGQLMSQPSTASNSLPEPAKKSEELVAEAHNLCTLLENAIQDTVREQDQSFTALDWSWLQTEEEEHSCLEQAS", "test": "Inhibition of human recombinant C-terminal FLAG-epitope-tagged IKK2 expressed in baculovirus using biotinylated IkappaBalpha peptide as substrate assessed as decrease in [gamma-33P]-ATP incorporation in substrate after 30 mins by scintillation counting method", "units": {"IC50": "nM"}}
{"smiles": "NC(=O)c1nn(-c2ccc(-c3cccc(C(=O)O)c3)cc2)c2c1CCc1ccc(NC(=O)c3ccccc3Cl)cc1-2", "IC50": "1000 to 10000"}
{"smiles": "NC(=O)c1nn(-c2cc(F)cc(F)c2)c2c1CCc1ccc(NC(=O)c3cccc(Cl)c3Cl)cc1-2", "IC50": "1000 to 10000"}
{"smiles": "NC(=O)c1nn(-c2ccc(O)cc2)c2c1CCc1ccc(NC(=O)c3cc4c(cc3Cl)OCO4)cc1-2", "IC50": "≤ 1000"}
{"smiles": "NC(=O)c1nn(-c2ccc(OCC(O)CO)cc2)c2c1CCc1ccc(NC(=O)c3cccnc3Cl)cc1-2", "note": "(centres undefined)", "IC50": "≤ 1000"}
{"smiles": "CC(=O)Oc1cccc(C(=O)Nc2ccc3c(c2)-c2c(c(C(N)=O)nn2-c2cccc(F)c2)CC3)c1C", "IC50": "1000 to 10000"}
{"smiles": "NC(=O)c1nn(-c2ccc(/C=C3\\CCOC3=O)cc2)c2c1CCc1ccc(NC(=O)c3ccccc3Cl)cc1-2", "IC50": "1000 to 10000"}
{"smiles": "CN(C)CCOc1ccc(-n2nc(C(N)=O)c3c2-c2cc(NC(=O)c4ccccc4Cl)ccc2CC3)cc1", "IC50": "1000 to 10000"}
{"smiles": "NC(=O)c1nn(-c2cccc([N+](=O)[O-])c2)c2c1CCc1ccc(NC(=O)c3ccccc3Cl)cc1-2", "IC50": "1000 to 10000"}
{"smiles": "NC(=O)c1nn(-c2ccc(C(F)(F)F)cc2)c2c1CCc1ccc(NC(=O)c3ccccc3Cl)cc1-2", "IC50": "1000 to 10000"}
{"smiles": "CN(C)C(=O)/C=C/c1ccc(-n2nc(C(N)=O)c3c2-c2cc(NC(=O)c4cccnc4Cl)ccc2CC3)cc1", "IC50": "1000 to 10000"}
{"smiles": "CS(=O)(=O)Nc1ccc2c(c1)-c1c(c(C(N)=O)nn1-c1ccccc1)CC2", "IC50": "1000 to 10000"}
{"smiles": "CNC(=O)/C=C/c1ccc(-n2nc(C(N)=O)c3c2-c2cc(N)ccc2CC3)cc1", "IC50": "1000 to 10000"}
{"smiles": "NC(=O)c1nn(-c2cccc(F)c2)c2c1CCc1ccc(NC(=O)c3cccc(Cl)c3Cl)cc1-2", "IC50": "1000 to 10000"}
{"smiles": "NC(=O)c1nn(-c2ccc(C(=O)O)cc2)c2c1CCc1ccc(NC(=O)c3ccccc3Cl)cc1-2", "IC50": "1000 to 10000"}
{"smiles": "CN(C)C(=O)/C=C/c1ccc(-n2nc(C(N)=O)c3c2-c2cc(NS(C)(=O)=O)ccc2CC3)cc1", "IC50": "1000 to 10000"}
{"smiles": "NC(=O)c1nn(-c2cccc(Cl)c2)c2c1CCc1ccc(NC(=O)c3ccccc3Cl)cc1-2", "IC50": "≤ 1000"}
{"smiles": "NC(=O)c1nn(-c2ccc(-c3cccnc3)cc2)c2c1CCc1ccc(NC(=O)c3ccccc3Cl)cc1-2", "IC50": "1000 to 10000"}
{"smiles": "NC(=O)c1nn(-c2ccc(-c3cccc(CO)c3)cc2)c2c1CCc1ccc(NC(=O)c3ccccc3Cl)cc1-2", "IC50": "1000 to 10000"}
{"smiles": "CC1(C)OCC(COc2ccc(-n3nc(C(N)=O)c4c3-c3cc(NC(=O)c5ccc(S(C)(=O)=O)cc5Cl)ccc3CC4)cc2)O1", "note": "(centres undefined)", "IC50": "1000 to 10000"}
{"smiles": "CS(=O)(=O)Nc1ccc2c(c1)-c1c(c(C(N)=O)nn1-c1cccc(O)c1)CC2", "IC50": "1000 to 10000"}
{"smiles": "NC(=O)/C=C/c1ccc(-n2nc(C(N)=O)c3c2-c2cc(NC(=O)c4cccnc4Cl)ccc2CC3)cc1", "IC50": "≤ 1000"}
{"smiles": "Cc1ccccc1C(=O)Nc1ccc2c(c1)-c1c(c(C(N)=O)nn1-c1ccc(Br)cc1)CC2", "IC50": "≤ 1000"}
{"smiles": "CC(=O)/C=C/c1ccc(-n2nc(C(N)=O)c3c2-c2cc(NC(=O)c4ccccc4Cl)ccc2CC3)cc1", "IC50": "≤ 1000"}
{"smiles": "CS(=O)(=O)c1ccc(C(=O)Nc2ccc3c(c2)-c2c(c(C(N)=O)nn2-c2ccc(OCC(O)CO)cc2)CC3)c(Cl)c1", "note": "(centres undefined)", "IC50": "≤ 1000"}
{"smiles": "C[S+]([O-])c1ccc(Cl)c(C(=O)Nc2ccc3c(c2)-c2c(c(C(N)=O)nn2-c2ccc(O)cc2)CC3)c1", "note": "(centres undefined)", "IC50": "≤ 1000"}
{"smiles": "CC1(C)OCC(COc2ccc(-n3nc(C(N)=O)c4c3-c3cc(NC(=O)c5ccccc5Cl)ccc3CC4)cc2)O1", "note": "(centres undefined)", "IC50": "≤ 1000"}
{"smiles": "CNC(=O)/C=C/c1ccc(-n2nc(C(N)=O)c3c2-c2cc(NS(C)(=O)=O)ccc2CC3)cc1", "IC50": "≤ 1000"}
{"smiles": "NC(=O)c1nn(-c2ccc(OCC(O)CO)cc2)c2c1CCc1ccc(NC(=O)c3cc(N)ccc3Cl)cc1-2", "note": "(centres undefined)", "IC50": "≤ 1000"}
{"smiles": "CC(=O)CCc1ccc(-n2nc(C(N)=O)c3c2-c2cc(NS(C)(=O)=O)ccc2CC3)cc1", "IC50": "1000 to 10000"}
{"smiles": "CN(C)CCCOc1ccc(-n2nc(C(N)=O)c3c2-c2cc(NC(=O)c4ccccc4Cl)ccc2CC3)cc1", "IC50": "1000 to 10000"}
{"smiles": "NC(=O)c1nn(-c2ccc(-c3ccc(C(=O)O)cc3)cc2)c2c1CCc1ccc(NC(=O)c3ccccc3Cl)cc1-2", "IC50": "1000 to 10000"}
{"smiles": "COc1ccc(-c2ccc(-n3nc(C(N)=O)c4c3-c3cc(NC(=O)c5ccccc5Cl)ccc3CC4)cc2)cc1OC", "IC50": "1000 to 10000"}
{"smiles": "NC(=O)c1nn(-c2ccc(O)cc2)c2c1CCc1ccc(NC(=O)c3cc([N+](=O)[O-])ccc3Cl)cc1-2", "IC50": "≤ 1000"}
{"smiles": "NC(=O)c1nn(-c2cc(F)cc(F)c2)c2c1CCc1ccc(NC(=O)c3ccccc3Cl)cc1-2", "IC50": "≤ 1000"}
{"smiles": "NC(=O)c1nn(-c2cccnc2)c2c1CCc1ccc(NC(=O)c3ccccc3Cl)cc1-2", "IC50": "1000 to 10000"}
{"smiles": "CN(C)C/C=C/c1ccc(-n2nc(C(N)=O)c3c2-c2cc(NC(=O)c4ccccc4Cl)ccc2CC3)cc1", "IC50": "1000 to 10000"}
{"smiles": "Cc1cccc(-n2nc(C(N)=O)c3c2-c2cc(NC(=O)c4ccccc4Cl)ccc2CC3)c1", "IC50": "≤ 1000"}
{"smiles": "NC(=O)c1nn(-c2ccc(Cl)cc2)c2c1CCc1ccc(NC(=O)c3ccccc3Cl)cc1-2", "IC50": "≤ 1000"}
{"smiles": "NC(=O)c1nn(-c2ccc(Cl)c(Cl)c2)c2c1CCc1ccc(NC(=O)c3ccccc3Cl)cc1-2", "IC50": "1000 to 10000"}
{"smiles": "NC(=O)c1nn(-c2ccc(OC(F)(F)F)cc2)c2c1CCc1ccc(NC(=O)c3ccccc3Cl)cc1-2", "IC50": "1000 to 10000"}
{"smiles": "CC(C)(O)/C=C/c1ccc(-n2nc(C(N)=O)c3c2-c2cc(NC(=O)c4cccnc4Cl)ccc2CC3)cc1", "IC50": "1000 to 10000"}
{"smiles": "NC(=O)c1nn(-c2ccc(CCCO)cc2)c2c1CCc1ccc(NC(=O)c3cccnc3Cl)cc1-2", "IC50": "≤ 1000"}
{"smiles": "NC(=O)c1nn(-c2ccc(/C=C/C(=O)NCc3ccccc3)cc2)c2c1CCc1ccc(NC(=O)c3ccccc3Cl)cc1-2", "IC50": "1000 to 10000"}
{"smiles": "CC(C)c1ccc(-n2nc(C(N)=O)c3c2-c2cc(NC(=O)c4ccccc4Cl)ccc2CC3)cc1", "IC50": "1000 to 10000"}
{"smiles": "NC(=O)c1nn(-c2ccc(-c3cccc(N)c3)cc2)c2c1CCc1ccc(NC(=O)c3ccccc3Cl)cc1-2", "IC50": "1000 to 10000"}
{"smiles": "CC1(C)OCC(COc2ccc(-n3nc(C(N)=O)c4c3-c3cc(NC(=O)c5cccnc5Cl)ccc3CC4)cc2)O1", "note": "(centres undefined)", "IC50": "1000 to 10000"}
{"smiles": "CC1(C)OCC(COc2ccc(-n3nc(C(N)=O)c4c3-c3cc(NC(=O)c5ccncc5Cl)ccc3CC4)cc2)O1", "note": "(centres undefined)", "IC50": "1000 to 10000"}
{"smiles": "NC(=O)c1nn(-c2ccc(-c3ccoc3)cc2)c2c1CCc1ccc(NC(=O)c3ccccc3Cl)cc1-2", "IC50": "1000 to 10000"}
{"smiles": "NC(=O)c1nn(-c2ccc(OCc3ccccc3)cc2)c2c1CCc1ccc(NC(=O)c3cccnc3Cl)cc1-2", "IC50": "1000 to 10000"}
{"smiles": "NC(=O)c1nn(-c2ccc(OCC(O)CO)cc2)c2c1CCc1ccc(NC(=O)c3ccccc3Cl)cc1-2", "note": "(centres undefined)", "IC50": "≤ 1000"}
{"smiles": "NC(=O)c1nn(-c2ccc(C(F)(F)F)cc2)c2c1CCc1ccc(N)cc1-2", "IC50": "1000 to 10000"}
{"smiles": "CCOC(=O)/C=C/c1ccc(-n2nc(C(N)=O)c3c2-c2cc(NC(=O)c4ccccc4Cl)ccc2CC3)cc1", "IC50": "1000 to 10000"}
{"smiles": "NC(=O)c1nn(-c2ccc(OCC(O)CO)cc2)c2c1CCc1ccc(NC(=O)c3ccncc3Cl)cc1-2", "note": "(centres undefined)", "IC50": "≤ 1000"}
{"smiles": "NC(=O)c1nn(-c2cccc(F)c2)c2c1CCc1ccc(NC(=O)c3cccc(F)c3F)cc1-2", "IC50": "1000 to 10000"}
{"smiles": "NC(=O)c1nn(-c2cccc(O)c2)c2c1CCc1ccc(NC(=O)c3cc(N)ccc3Cl)cc1-2", "IC50": "≤ 1000"}
{"smiles": "CN(C)CCN(C)c1cc(C(=O)Nc2ccc3c(c2)-c2c(c(C(N)=O)nn2-c2ccc(F)cc2)CC3)c(Cl)cn1", "IC50": "≤ 1000"}
{"smiles": "CN1CCCN(c2cc(C(=O)Nc3ccc4c(c3)-c3c(c(C(N)=O)nn3-c3ccc(F)cc3)CC4)c(Cl)cn2)CC1", "IC50": "≤ 1000"}
{"smiles": "CN1CCN(c2cc(C(=O)Nc3ccc4c(c3)-c3c(c(C(N)=O)nn3-c3ccc(F)cc3)CC4)c(Cl)cn2)CC1", "IC50": "≤ 1000"}
{"smiles": "NC(=O)c1nn(-c2ccc(F)cc2)c2c1CCc1ccc(NC(=O)c3nc(N4CCOCC4)ccc3Cl)cc1-2", "IC50": "1000 to 10000"}
